Columns and labels:
Format in all cases: in vivo, Sprague Dawley rats
[1] = test system: OA rats (bilateral anterior cruciate ligament surgical resection); assay: Histomorphometric evaluation of the cartilage area, OA rats by anterior cruciate ligament resection, monthly treatment; details: 4 monthly i.a. doses
Protocol: (§1) In this study, the efficacy of a treatment performed by monthly intra-articular administration of sodium chlodronate on male “Sprague Dawley” rats affected by OA was evaluated. The treatment involved 4 monthly doses of sodium chlodronate, followed by one month of follow-up.
(§2) In the experimental model, OA was induced in rats by bilateral anterior cruciate ligament surgical resection in both hind limbs.
(§3) A volume of 50 μL of treatment solution, having a pH of about 4.5, as measured just before administration, was injected into the intra-articular cavity of each knee.
(§4) The study included 5 treatment groups, each consisting of 10 male rats, specifically two treatment groups consisting of OA rats, on which chlodronate doses of 8 and 12 mg/ml, corresponding to 0.4 and 0.6 mg/rat, were tested, and remaining three groups represented by untreated OA rats, operated but untreated Sham rats, and rats receiving placebo alone.
(§5) During the treatment period, the animals were regularly checked in relation to the increase in body mass, food intake and general health conditions. Clinical and hematological analyses were performed at the end of the study. […]
Histomorphometric quantitative measurements of the cartilage area were performed using Image-Pro Plus 4.1 software for windows (Media Cybernetics, Maryland, USA). […]

OA rats (MIA model) = assay: Difference in edema size between right and left knees, MIA-induced OA rats, weekly intra-articular treatment; details: 4 weekly i.a. administrations
Description: (§6) As an experimental model of OA induction, one involving the intra-articular administration of MIA (monosodium iodoacetate) was used.
The IA injection of MIA creates a model of acute inflammation that allows the study of cartilage degradation and joint pain.
(§7) The rats were anesthetized by a gaseous mixture of isoflurane and oxygen, and maintained in a supine position. Once the infrapatellar ligament was identified by touch, a single intra-articular injection of monosodium iodoacetate (MIA) was performed in the right knee, after having shaved the skin of the area, while keeping the joint slightly flexed. The amount of MIA injected was equal to 1 mg dissolved in 50 μl of saline solution, having a pH of about 4.5, as measured just before administration. The joint of the left knee was instead injected with 50 μl of saline solution alone, and this represented the internal control.
(§8) The treatment involved 4 weekly administrations of sodium chlodronate, followed by one week of follow-up.
(§9) The study included 8 treatment groups, each consisting of 10 male Sprague Dawley rats, specifically five treatment groups consisting of OA rats, on which the chlodronate doses of 2, 10, 20, 30, and 40 mg/ml, corresponding to 0.1, 0.5, 1, 1.5, and 2 mg/rat, were tested, and the remaining three groups represented by untreated OA rats, operated but untreated Sham rats, and rats administered only with placebo at pH 4.5.
(§10) During the treatment period, the animals were regularly checked in relation to the increase in body mass, food intake, and general health conditions. Clinical and hematological analyses were performed at the end of the study. The difference between the size of the edema in the two inflamed knees for all the observation groups, the final serum concentration of CTX-I (C-telopeptide of type I collagen), as a marker of bone turnover, and the final serum concentration of CTX-II (C-telopeptide of type II collagen), as a marker of cartilage turnover were investigated.
The measurement of the difference in size of the right and left knee edema (indicated with D and expressed in mm) was performed on anesthetized rats, by using a digital caliper (Digi-max slide caliper W/LCD readout Sigma Aldrich).

[2] = test system: COMP (Cartilage Oligomeric Matrix Protein); assay: COMP final serum concentration, MIA-induced OA rats, weekly treatment
Protocol: as §6, §7, §8, §9
Considering that the presence of high concentrations of COMP in serum is an indication of the progression of osteoarthritic disease, the measurement of COMP (Cartilage Oligomeric Matrix Protein) final serum concentration is a measure of treatment efficacy.
In fact, COMP seems to play a fundamental role in the formation and structure of articular cartilage, as it has a regulatory function in assembling type II collagen fibers and, together with other matrix proteins, stabilizes the network of collagen fibers. During osteoarthritis, a greater amount of this protein was found in the blood, therefore a higher concentration of COMP in the serum corresponds to a more advanced stage of osteoarthritis degeneration.

[3] = test system: CTX-II (C-telopeptide of type II collagen); assay: CTX-II final serum concentration, MIA-induced OA rats, weekly treatment
Protocol: as §6, §7, §8, §9, §10
Considering that CTX-II (C-telopeptide of type II collagen) is a cartilage turnover marker and its concentration levels are proportional to the […], the measurement of CTX-II final serum concentration value is a measure of the treatment efficacy.

[4] = test system: OA rats (bilateral anterior cruciate ligament surgical resection); assay: Histopathological evaluation (modified Mankin score), OA rats by anterior cruciate ligament resection, monthly treatment; details: 4 monthly i.a. doses, scale 0 (normal) to 15 (seriously damaged)
Protocol: as §1, §2, §3, §4, §5

Question: How did the “Cartilage Area Average Value ± SEM” value ([1]; 8 mg/ml (0.4 mg/rat)) turn out when `O=P([O-])(O)C(Cl)(Cl)P(=O)([O-])O.[Na+].[Na+]` [Sodium Chlodronate, sodium chlodronate] was run?
Answer: 486 ± 157.7

Question: And the “Cartilage Area Average Value ± SEM” value ([1]; 12 mg/ml (0.6 mg/rat))?
Answer: 435 ± 125.9

Question: And the “D, Mean Value (mm) ± SEM (difference in size of right and left knee edema)” value (OA rats (MIA model); 2 mg/ml (0.1 mg/rat))?
Answer: 0.37 ± 0.067 mm

Question: What about the “D, Mean Value (mm) ± SEM (difference in size of right and left knee edema)” value (OA rats (MIA model); 10 mg/ml (0.5 mg/rat)) of the same compound?
Answer: 0.28 ± 0.063 mm

Question: And the “D, Mean Value (mm) ± SEM (difference in size of right and left knee edema)” value (OA rats (MIA model); 20 mg/ml (1 mg/rat))?
Answer: 0.27 ± 0.047 mm

Question: And the “D, Mean Value (mm) ± SEM (difference in size of right and left knee edema)” value (OA rats (MIA model); 30 mg/ml (1.5 mg/rat))?
Answer: 0.11 ± 0.043 mm

Question: And the “D, Mean Value (mm) ± SEM (difference in size of right and left knee edema)” value (OA rats (MIA model); 40 mg/ml (2 mg/rat))?
Answer: 0.28 ± 0.033 mm

Question: What about the “COMP Value” ([2]; 2 mg/mL weekly i.a.) of the same compound?
Answer: 5.46 ng/mL

Question: And the “COMP Value” ([2]; 10 mg/mL weekly i.a.)?
Answer: 5.52 ng/mL

Question: What about the “COMP Value” ([2]; 20 mg/mL weekly i.a.) of the same compound?
Answer: 5.24 ng/mL

Question: What about the “COMP Value” ([2]; 30 mg/mL weekly i.a.) of the same compound?
Answer: 4.9 ng/mL

Question: And the “COMP Value” ([2]; 40 mg/mL weekly i.a.)?
Answer: 3.52 ng/mL

Question: What about the “CTX-II Value” ([3]; 2 mg/mL weekly i.a.) of the same compound?
Answer: 6.84 pg/mL

Question: And the “CTX-II Value” ([3]; 10 mg/mL weekly i.a.)?
Answer: 6.48 pg/mL

Question: And the “CTX-II Value” ([3]; 20 mg/mL weekly i.a.)?
Answer: 5.93 pg/mL

Question: What about the “CTX-II Value” ([3]; 30 mg/mL weekly i.a.) of the same compound?
Answer: 5.67 pg/mL

Question: What about the “CTX-II Value” ([3]; 40 mg/mL weekly i.a.) of the same compound?
Answer: 5.73 pg/mL

Question: And the “Mankin Index Mean Value ± SEM” value ([4]; 8 mg/ml (0.4 mg/rat))?
Answer: 4.9 ± 0.458

Question: And the “Mankin Index Mean Value ± SEM” value ([4]; 12 mg/ml (0.6 mg/rat))?
Answer: 2.6 ± 0.618

From patent US11123354B2, “Method for the treatment of osteoarthritis” (ABIOGEN PHARMA S.P.A., priority 2016, dated 2021)
